Among the data in patent US10201533B2, “Substituted quinolizine derivatives useful as HIV integrase inhibitors” (priority 2013, dated 2019) are IC50 values, retold here.

Read-outs that look alike come from different tables or passages of the source.

In the experiment the test system is HIV-1 (NL4-3 strain). In words: microbe, parasite or virus in culture. In kind it is cell-based. As to conditions: MT4-GFP cells infected with HIV-1 NL4-3, IP or IC50 from 4-parameter dose response curve.
Setting [1] is: 0% normal human serum (NHS), read-out: WILD TYPE CELL ASSAY Viking IP (0% NHS).
[2] abbreviates: 100% normal human serum (NHS), read-out: WILD TYPE CELL ASSAY Viking IP (100% NHS).
Setting [3] is: Human immunodeficiency virus 1, NL43, 0% normal human serum (NHS), read-out: WILD TYPE CELL ASSAY Viking IP (0% NHS).
Setting [4] is: Human immunodeficiency virus 1, NL43, 100% normal human serum (NHS), read-out: WILD TYPE CELL ASSAY Viking IP (100% NHS).

Take `COCCC[C@]1(C)C(=O)c2c(O)c(=O)c(C(=O)NCc3c(F)cc(F)cc3F)cn2C[C@@H]1OC` [Compound 90]: the IC50 runs as follows: under setting [1], 0.8 nM; under setting [2], 13 nM.

Regarding `COCCC[C@]1(C)C(=O)c2c(O)c(=O)c(C(=O)NCc3c(F)cc(F)cc3F)cn2C[C@@H]1OC` [Compound 91], the IC50 by setting is: under setting [1], 3.8 nM; under setting [2], 273 nM.

As for `COCCC[C@@]1(C)C(=O)c2c(O)c(=O)c(C(=O)NCc3c(F)cc(F)cc3F)cn2C[C@@H]1OC` [Compound 92], the IC50 reads like this: under setting [3], 1.3 nM; under setting [4], 59 nM.

As to `COCCC[C@@]1(C)C(=O)c2c(O)c(=O)c(C(=O)NCc3c(F)cc(F)cc3F)cn2C[C@@H]1OC` [Compound 93], the IC50 reads like this: under setting [1], 1.2 nM; under setting [2], 52 nM.

In the case of `C[C@@]12CCCC[C@]1(O)Cn1cc(C(=O)NCc3ccc(F)cc3F)c(=O)c(O)c1C2=O` [Compound 94], the IC50 runs as follows: under setting [3], 1.8 nM; under setting [4], 282 nM.

`C[C@]12CCCC[C@@]1(O)Cn1cc(C(=O)NCc3ccc(F)cc3F)c(=O)c(O)c1C2=O` [Compound 95]: the IC50 was 2.2 nM under setting [3] and 41 nM under setting [4].

`C[C@@]12CCCC[C@]1(O)Cn1cc(C(=O)NCc3ccc(F)c(Cl)c3)c(=O)c(O)c1C2=O` [Compound 96]: the IC50 was 6.2 nM under setting [3] and > 8400 nM under setting [4].

`C[C@]12CCCC[C@@]1(O)Cn1cc(C(=O)NCc3ccc(F)c(Cl)c3)c(=O)c(O)c1C2=O` [Compound 97]: the IC50 is 2.4 nM under setting [3] and 151 nM under setting [4].

As for `C[C@@]12CCCCC[C@@]1(O)Cn1cc(C(=O)NCc3ccc(F)cc3F)c(=O)c(O)c1C2=O` [Compound 99], the IC50 runs as follows: under setting [3], 3.7 nM; under setting [4], 616 nM.

In the case of `C[C@]12CCCCC[C@@]1(O)Cn1cc(C(=O)NCc3ccc(F)cc3F)c(=O)c(O)c1C2=O` [Compound 101], the IC50 by setting is: under setting [3], 2.1 nM; under setting [4], 105 nM.

With `CC12CCCC1(O)Cn1cc(C(=O)NCc3ccc(F)cc3F)c(=O)c(O)c1C2=O` (stereo not drawn) [Compound 104], the IC50 by setting is: under setting [3], 3.6 nM; under setting [4], 343 nM.

Turning to `COC12CCCC1(C)C(=O)c1c(O)c(=O)c(C(=O)NCc3ccc(F)cc3F)cn1C2` (stereo not drawn) [Compound 105], the IC50 came out at 3.5 nM under setting [3] and 2290 nM under setting [4].

With `COC12CCCC1(C)C(=O)c1c(O)c(=O)c(C(=O)NCc3ccc(F)cc3)cn1C2` (stereo not drawn) [Compound 106], the IC50 by setting is: under setting [3], 3.3 nM; under setting [4], 3340 nM.

For `COC12CCCC1(C)C(=O)c1c(O)c(=O)c(C(=O)NCc3ccc(F)c(F)c3F)cn1C2` (stereo not drawn) [Compound 107], the IC50 was found to be 5.7 nM under setting [3] and 4930 nM under setting [4].

On to `CC1(C)CCC[C@]2(C)C(=O)c3c(O)c(=O)c(C(=O)NCc4ccc(F)cc4F)cn3C[C@]12O` [Compound 108], for which the IC50 under setting [3] is 2 nM and the IC50 under setting [4] is 105 nM.

As to `CC1(C)CCC[C@@]2(C)C(=O)c3c(O)c(=O)c(C(=O)NCc4ccc(F)cc4F)cn3C[C@@]12O` [Compound 109], the IC50 is 3.2 nM under setting [3] and 714 nM under setting [4].

`COCO[C@@]12CCCC[C@]1(C)C(=O)c1c(O)c(=O)c(C(=O)NCc3ccc(F)cc3F)cn1C2` [Compound 110]: the IC50 runs as follows: under setting [3], 2.1 nM; under setting [4], 140 nM.

For `COCO[C@]12CCCC[C@@]1(C)C(=O)c1c(O)c(=O)c(C(=O)NCc3ccc(F)cc3F)cn1C2` [Compound 111], the IC50 amounted to 3 nM under setting [3] and 858 nM under setting [4].

Take `CO[C@@]12CCCC[C@]1(C)C(=O)c1c(O)c(=O)c(C(=O)NCc3ccc(F)cc3F)cn1C2` [Compound 112]: the IC50 runs as follows: under setting [3], 0.65 nM; under setting [4], 4110 nM.

Take `CO[C@]12CCCC[C@@]1(C)C(=O)c1c(O)c(=O)c(C(=O)NCc3ccc(F)cc3F)cn1C2` [Compound 113]: the IC50 runs as follows: under setting [3], 1.3 nM; under setting [4], > 8000 nM.

`COCCO[C@@]12CCCC[C@]1(C)C(=O)c1c(O)c(=O)c(C(=O)NCc3ccc(F)cc3F)cn1C2` [Compound 114]: the IC50 by setting is: under setting [3], 1.9 nM; under setting [4], 137 nM.

As for `COCCO[C@]12CCCC[C@@]1(C)C(=O)c1c(O)c(=O)c(C(=O)NCc3ccc(F)cc3F)cn1C2` [Compound 115], the IC50 runs as follows: under setting [3], 1.4 nM; under setting [4], 225 nM.

With `COCCCO[C@@]12CCCC[C@]1(C)C(=O)c1c(O)c(=O)c(C(=O)NCc3ccc(F)cc3F)cn1C2` [Compound 116], the IC50 reads like this: under setting [3], 2.3 nM; under setting [4], 256 nM.

Take `COCCCO[C@]12CCCC[C@@]1(C)C(=O)c1c(O)c(=O)c(C(=O)NCc3ccc(F)cc3F)cn1C2` [Compound 117]: the IC50 is, setting by setting: under setting [3], 2.5 nM; under setting [4], 1440 nM.

Take `CO[C@@]12CCCCC[C@]1(C)C(=O)c1c(O)c(=O)c(C(=O)NCc3ccc(F)cc3F)cn1C2` [Compound 118]: the IC50 runs as follows: under setting [3], 1.4 nM; under setting [4], 873 nM.

With `CO[C@]12CCCCC[C@@]1(C)C(=O)c1c(O)c(=O)c(C(=O)NCc3ccc(F)cc3F)cn1C2` [Compound 119], the IC50 is, setting by setting: under setting [3], 2.1 nM; under setting [4], 2060 nM.

For `CC[C@]12CCCO[C@@H]1Cn1cc(C(=O)NCc3ccc(F)cc3F)c(=O)c(O)c1C2=O` [Compound 120], the IC50 runs as follows: under setting [3], 0.8 nM; under setting [4], 116 nM.

Turning to `C[C@]12CCCN[C@H]1Cn1cc(C(=O)NCc3ccc(F)cc3F)c(=O)c(O)c1C2=O` [Compound 121], the IC50 under setting [3] came out at 2.6 nM and the IC50 under setting [4] worked out at 62 nM.

In the case of `C[C@]12CCCN[C@H]1Cn1cc(C(=O)NCc3ccc(F)cc3F)c(=O)c(O)c1C2=O` [Compound 122], the IC50 is, setting by setting: under setting [1], 3.3 nM; under setting [2], 35 nM.

Take `CN1CCC[C@]2(C)C(=O)c3c(O)c(=O)c(C(=O)NCc4ccc(F)cc4F)cn3C[C@H]12` [Compound 124]: the IC50 runs as follows: under setting [3], 3.2 nM; under setting [4], 53 nM.
